pIC50: −log10 of the molar value. Structures can show the parent of a compound that is named as a salt. Where two headings read alike, the source gives them in different places.

The source of these data is US7560466B2, “Methods of treating or preventing autoimmune diseases with 2,4-pyrimidinediamine compounds” (Rigel Pharmaceuticals, Inc., priority 2003, dated 2009).

The subject of test [1] is cultured human mast cells (CHMC), IgE-induced degranulation. The test can be described thus: CHMC low cell density IgE activation: tryptase assay. The class given is cell-based. The gist of the method: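 Cord-blood CD34+-derived mucosal mast cells (SCF/IL-6 medium), 1000–1500 cells/well, preincubated with compound 1 h at 37°C, then anti-IgE stimulated 30 min at 37°C.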

Test [2] deals with cultured human mast cells (CHMC), ionomycin-induced degranulation. The test is described as follows: CHMC low cell density ionomycin activation: tryptase assay. The format is cell-based. The conditions noted are these: ionomycin activation, read-out: LD Tryptase, CHMC, Iono, 3pt.
[3] abbreviates: low cell density CHMC, 3pt, read-out: LD Tryptase, CHMC, IgE, 3pt.
[4] abbreviates: low cell density CHMC, 8pt, read-out: LD Tryptase, CHMC, IgE, 8pt.
The mark [5] stands for this setting: low cell density CHMC, 3-point, read-out: LD Tryptase, CHMC, IgE, 3pt.
The mark [6] stands for this setting: low cell density CHMC, 8-point, read-out: LD Tryptase, CHMC, IgE, 8pt.
Setting [7] is: Homo sapiens, Mast cell, low cell density CHMC, 3pt, read-out: LD Tryptase, CHMC, IgE, 3pt.
Setting [8] is: Homo sapiens, Mast cell, low cell density CHMC, 8pt, read-out: LD Tryptase, CHMC, IgE, 8pt.
Setting [9] is: CHMC low cell density, 8pt, read-out: LD Tryptase, CHMC, IgE, 8pt.

Consider `COc1cc(C)c(Nc2ncc(F)c(Nc3ccc4c(c3)NC(C)(C)CO4)n2)cc1Cl` [Compound 216, N2-(3-Chloro-4-methoxy-6-methylphenyl)-N4-(3,4-dihydro-3,3-dimethyl-2H,4H-benz[1,4]oxazin-6-yl)-5-fluoro-2,4-pyrimidinediamine], for which the pIC50 in test [1] (setting [3]) was greater than 5.00; in test [1] (setting [4]), greater than 5.00; in test [2] (low cell density CHMC, 3pt), less than 5.00. As to `Fc1cnc(Nc2cccc(-c3ncco3)c2)nc1Nc1ccc2c(c1)NCCO2` [Compound 217, N4-(3,4-Dihydro-2H,4H-benz[1,4]oxazin-6-yl)-5-fluoro-N2-[3-(oxazol-2-yl)phenyl]-2,4-pyrimidinediamine], the pIC50 in test [1] (setting [3]) is greater than 5.00; in test [1] (setting [4]) it was greater than 5.00; in test [2] (low cell density CHMC, 3pt) it was less than 5.00.

As to `CC1(C)COc2ccc(Nc3nc(Nc4cccc(-c5ncco5)c4)ncc3F)cc2N1` [Compound 218, N4-(3,4-Dihydro-3,3-dimethyl-2H,4H-benz[1,4]oxazin-6-yl)-5-fluoro-N2-[3-(oxazol-2-yl)phenyl]-2,4-pyrimidinediamine], the pIC50 in test [1] (setting [3]) was greater than 5.00; in test [1] (setting [4]), greater than 5.00; in test [2] (low cell density CHMC, 3pt) it was less than 5.00. Regarding `CNC(=O)COc1cccc(Nc2ncc(F)c(Nc3ccc4c(n3)NC(=O)C(C)(C)O4)n2)c1` [Compound 992, N4-(2,2-Dimethyl-3-oxo-4H-5-pyrid[1,4]oxazin-6-yl)-5-fluoro-N2-[3-(N-methylamino)carbonylmethyleneoxyphenyl]-2,4-pyrimidinediamine (+)-Camphorsulfonic Acid Salt], in test [2] (CHMC low cell density, 3pt), the pIC50 is less than 5.00. For `Cn1ncc2ccc(Nc3ncc(F)c(Nc4ccc5c(n4)NC(=O)C(C)(C)O5)n3)cc21` [Compound 1056, N4-(2,2-Dimethyl-3-oxo-4H-5-pyrid[1,4]oxazin-6-yl)-5-fluoro-N2-[1-methylindazol-6-yl]-2,4-pyrimidinediamine Hydrogen Chloride Salt], the pIC50 in test [2] (low cell density CHMC, 3-point) was less than 5.00.

In the case of `Cc1cc(C)cc(Nc2ncc(F)c(Nc3ccc4c(n3)NC(=O)[C@H](C)O4)n2)c1` [Compound 1084, (S)—N2-(3,5-Dimethylphenyl)-5-fluoro-N4-(2-methyl-3-oxo-2H,4H-5-pyrid[1,4]oxazin-6-yl)-2,4-pyrimidinediamine], the pIC50 is less than 5.00 in test [1] (setting [5]) and greater than 5.00 in test [1] (setting [6]).

For `Fc1cnc(Nc2cccc(-c3cnco3)c2)nc1Nc1ccc2c(n1)NCCO2` [Compound 1132, N4-(3,4-Dihydro-2H,4H-5-pyrid[1,4]oxazin-6-yl)-5-fluoro-N2-[3-(oxazol-5-yl)phenyl]-2,4-pyrimidinediamine], in test [1] (setting [6]), the pIC50 was greater than 5.00. On to `CC(=O)N1CCN(c2ccc(Nc3ncc(F)c(Nc4ccc5c(n4)NCCO5)n3)cc2)CC1` [Compound 1134, N2-[4-(4-Acetylpiperazino)phenyl]-N4-(3,4-dihydro-2H,4H-5-pyrid[1,4]oxazin-6-yl)-5-fluoro-2,4-pyrimidinediamine], for which the pIC50 in test [1] (setting [5]) and in test [1] (setting [6]) was greater than 5.00 in each case. In the case of `CCOC(=O)N1CCN(c2ccc(Nc3ncc(F)c(Nc4ccc5c(n4)NCCO5)n3)cc2)CC1` [Compound 1135, N4-(3,4-Dihydro-2H,4H-5-pyrid[1,4]oxazin-6-yl)-N2-[4-(4-ethoxycarbonylpiperazino)phenyl]-5-fluoro-2,4-pyrimidinediamine], the pIC50 in test [1] (setting [5]) and in test [1] (setting [6]) was greater than 5.00 throughout. With `Fc1cnc(Nc2cccc(N3CCOCC3)c2)nc1Nc1ccc2c(n1)NCCO2` [Compound 1136, N4-(3,4-Dihydro-2H,4H-5-pyrid[1,4]oxazin-6-yl)-5-fluoro-N2-(3-morpholinophenyl)-2,4-pyrimidinediamine], the pIC50 in test [1] (setting [5]) and in test [1] (setting [6]) was greater than 5.00 in each case. On to `CC(=O)N1CCN(c2cccc(Nc3ncc(F)c(Nc4ccc5c(n4)NCCO5)n3)c2)CC1` [Compound 1137, N2-[3-(4-Acetylpiperazino)phenyl]-N4-(3,4-dihydro-2H,4H-5-pyrid[1,4]oxazin-6-yl)-5-fluoro-2,4-pyrimidinediamine], for which the pIC50 in test [1] (setting [5]) and in test [1] (setting [6]) was greater than 5.00 each time.

As for `CCOC(=O)N1CCN(c2cccc(Nc3ncc(F)c(Nc4ccc5c(n4)NCCO5)n3)c2)CC1` [Compound 1138, N4-(3,4-Dihydro-2H,4H-5-pyrid[1,4]oxazin-6-yl)-N2-[3-(4-ethoxycarbonylpiperazino)phenyl]-5-fluoro-2,4-pyrimidinediamine], the pIC50 in test [1] (setting [5]) and in test [1] (setting [6]) was greater than 5.00 throughout.

With `CN1CCN(c2ccc(Nc3ncc(F)c(Nc4ccc5c(n4)NCCO5)n3)cc2Cl)CC1` [Compound 1197, N2-[3-Chloro-4-(4-methylpiperazino)phenyl]-N4-(3,4-dihydro-2H,4H-5-pyrid[1,4]oxazin-6-yl)-5-fluoro-2,4-pyrimidinediamine], the pIC50 in test [1] (setting [3]) and in test [1] (setting [4]) was greater than 5.00 in each case.

As to `Cc1cc(Nc2ncc(F)c(Nc3ccc4c(n3)NCCO4)n2)ccc1N1CCN(C)CC1` [Compound 1203, N4-(3,4-Dihydro-2H,4H-5-pyrid[1,4]oxazin-6-yl)-5-fluoro-N2-[3-methyl-4-(4-methylpiperazino)phenyl]-2,4-pyrimidinediamine], the pIC50 in test [1] (setting [3]) and in test [1] (setting [4]) was greater than 5.00 in each case.

With `C[C@@H]1Oc2ccc(Nc3nc(Nc4ccc(C(=O)N=CC(=O)O)cc4)ncc3F)cc2NC1=O` [Compound 1264], the pIC50 in test [1] (setting [7]) is less than 5.00.

On to `C[C@H]1Oc2ccc(Nc3nc(Nc4ccc(C(=O)N=CC(=O)O)cc4)ncc3F)cc2NC1=O` [Compound 1267], for which, in test [1] (setting [7]), the pIC50 is less than 5.00. In the case of `C[C@@H]1Oc2ccc(Nc3nc(NC4=CC=CC(=CNC(=O)OC(C)(C)C)C4)ncc3F)cc2NC1=O` [Compound 1276], the pIC50 in test [1] (setting [7]) and in test [1] (setting [8]) was greater than 5.00 in each case. Take `C[C@@H]1Oc2ccc(Nc3nc(NC4=CC=CC(=CN)C4)ncc3F)cc2NC1=O` [Compound 1279]: the pIC50 in test [1] (setting [7]) and in test [1] (setting [8]) was greater than 5.00 each time. As for `C[C@H]1Oc2ccc(Nc3nc(Nc4cccc(CN)c4)ncc3F)cc2NC1=O` [Compound 1280], the pIC50 in test [1] (setting [3]) and in test [1] (setting [4]) was greater than 5.00 throughout. For “(R)—N2-[3-(N-tert-Butoxycarbonylamino)methylenephenyl]-5-fluoro-N4-(2-methyl-3-oxo-2H,4H-benz[1,4]oxazin-6-yl) [Compound 1277]”, the pIC50 in test [1] (setting [3]) and in test [1] (setting [4]) was greater than 5.00 each time. Take “(S)-5-Fluoro-[1-(2-hydroxymethyl)-2-trifluoromethylbenzimidazol-5-yl]-N4-(2-methyl-3-oxo-2H,4H-benz[1,4]oxazin-6-yl)-2,4-pyrimidinediamine [Compound 923]”: the pIC50 in test [1] (setting [9]) was greater than 5.00. Consider “N2-(2-Aminocarbonylphenyl)-N4-(2,2-dimethyl-3-oxo-4H-5-pyrid[1,4]oxazin-6-yl)-5-fluoro-2,4-pyrimidinediamine [Compound 1316]”, for which the pIC50 in test [1] (setting [3]) was greater than 5.00; in test [1] (setting [4]), less than 5.00.

As to “N2-(4-Aminocarbonylphenyl)-N4-(2,2-dimethyl-3-oxo-4H-5-pyrid[1,4]oxazin-6-yl)-5-fluoro-2,4-pyrimidinediamine [Compound 1315]”, the pIC50 in test [1] (setting [3]) is greater than 5.00.

Take “N4-(2,2-Dimethyl-3-oxo-4H-5-pyrid[1,4]oxazin-6-yl)-5-fluoro-N2-(3-methoxycarbonylppyrid-2yl)-2,4-pyrimidinediamine [Compound 1314]”: the pIC50 in test [1] (setting [3]) is greater than 5.00. Same read-out and setting: next, “N4-(2,2-Dimethyl-3-oxo-4H-5-pyrid[1,4]oxazin-6-yl)-5-fluoro-N2-(4-methoxycarbonylphenyl)-2,4-pyrimidinediamine [Compound 1313]”: greater than 5.00.

In the case of “N4-(2,2-Dimethyl-3-oxo-4H-5-pyrid[1,4]oxazin-6-yl)-5-fluoro-[1-(2-hydroxymethyl)-2-trifluoromethylbenzimidazol-5-yl]-2,4-pyrimidinediamine [Compound 924]”, the pIC50 in test [1] (setting [9]) is greater than 5.00. On the same count and under the same terms, next, “N4-(2,2-Dimethyl-3-oxo-4H-5-pyrid[1,4]oxazin-6-yl)-N2-(1-methyl-2-trifluoromethylbenzimidazol-5-yl)-2,4-pyrimidinediamine [Compound 915]”: greater than 5.00. For the molecule “N4-(2,2-Dimethyl-3-oxo-4H-N4-oxo-5-pyrido[1,4]oxazin-6-yl)-5-fluoro-N2-(3,4,5-trimethoxyphenyl)-2,4-pyrimidinediamine [Compound 1340]”, the pIC50 in test [1] (setting [3]) and in test [1] (setting [4]) was greater than 5.00 in each case. For the molecule “N4-(2,2-Dimethyl-3-oxo-4H-benz[1,4]oxazin-6-yl)-5-fluoro-N2-{1-methyl-2-[(methylsulfonyl)methyl]benzimidazol-5-yl}-2,4-pyrimidinediamine [Compound 967]”, the pIC50 was greater than 5.00 in test [1] (CHMC low cell density, 3pt, read-out: LD Tryptase, CHMC, IgE, 3pt) and greater than 5.00 in test [1] (setting [9]). Take “N4-(2,2-Dimethyl-3-oxo-4H-benz[1,4]oxazin-6-yl)-5-fluoro-[1-(2-hydroxymethyl)-2-trifluoromethylbenzimidazol-5-yl]-2,4-pyrimidinediamine [Compound 922]”: the pIC50 in test [1] (setting [9]) is greater than 5.00.

“N4-(2,2-Dimethyl-3-oxo-4H-benz[1,4]oxazin-6-yl)-N2-(1-methyl-2-trifluoromethylbenzimidazol-5-yl)-2,4-pyrimidinediamine [Compound 913]”: the pIC50 in test [1] (setting [9]) was greater than 5.00. As for “N4-[benzoxathiazin-3(4H)-one-6-yl]2-chloro-5-fluoro-4-pyrimidinea mine [Compound 319]”, the pIC50 in test [1] (setting [3]) was greater than 5.00.
